Test [1] deals with PAR2 expressing keratinocytes (HaCaT). The experiment in a line: PAR2 mediated endocytosis assay (fluorescence microscopy). In kind it is cell-based, human. The settings on record: keratinocytes serum-starved 24 h, 2 h incubation, FIG. 5. The protocol:
SOP: PAR2 Mediated Endocytosis Assay • Culture HaCaT (cultured human keratinocytes) cells in DMEM (Dulbecco's Modified Eagle Medium, phenol red free!) supplemented with 10% (w/v) FCS and antibiotics (gentamicin: 50 μg/mL final conc.) in a 10 cm cell culture plate at a confluency (one cell layer on the plate) of 60-70% • Count the cells and dilute to 1-2×10^4 cells/mL in DMEM (phenol red free!) • Incubate 1 mL of the diluted cell suspension in each well of a 24-well cell culture plate supplemented with 10% (w/v) FCS (containing gentamicin at a final conc. of 50 μg/mL) on a glass coverslip for 24 h at 37° C., 5% CO2 • Discard the supernatant and carefully wash the cells 3 times with 500 μL DMEM (phenol red free, without FCS!) • Incubate the cells for 24 h at 37° C., 5% CO2 (DMEM without serum addition, phenol red free only!) • Add CaCl2 solution to reach a final concentration of 1.5 mM in the medium when using Ca^2+-free medium (induction of cell differentiation) • For PAR2 activation […]
An endocytosis assay was used to test whether the PAR ligand-conjugate, i.e. PAR2 agonist P8 enhances the uptake of IONPs into PAR, here PAR2 expressing keratinocytes, when immobilized to the surface of the IONP. […] After the incubation, cells were washed thoroughly for several times and internalization of the modified IONPs was analyzed employing fluorescent microscopy (FIG. 5, lower right corner). […]

The target in test [2] is T1, PAR2 (Homo sapiens, UniProt P55085).
T1 sequence (P55085 26-397): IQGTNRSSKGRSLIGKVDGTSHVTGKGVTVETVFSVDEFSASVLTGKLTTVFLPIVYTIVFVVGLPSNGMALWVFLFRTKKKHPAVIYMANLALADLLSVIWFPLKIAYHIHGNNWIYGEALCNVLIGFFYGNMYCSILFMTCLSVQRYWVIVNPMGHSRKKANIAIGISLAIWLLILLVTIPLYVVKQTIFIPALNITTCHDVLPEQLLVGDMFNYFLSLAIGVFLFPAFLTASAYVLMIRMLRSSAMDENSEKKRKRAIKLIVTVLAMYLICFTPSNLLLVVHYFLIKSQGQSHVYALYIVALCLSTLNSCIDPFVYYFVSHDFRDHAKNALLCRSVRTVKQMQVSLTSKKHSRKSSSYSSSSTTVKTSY
As to conditions: PAR2 agonist peptide, reference [1]; cited from earlier work.

The target in test [3] is T2, PAR2-expressing HEK293 (human embryonic kidney) cells (Homo sapiens, UniProt P55085).
T2 construct: PAR2-expressing HEK293 (human embryonic kidney) cells; endogenous in cells; host or cells: HEK293
T2 sequence (P55085 26-397): T1 sequence (P55085 26-397)
The experiment in a line: Intracellular Ca2+ mobilization assay (Indo-1 AM, flow cytometry). In kind it is cell-based. As to conditions: for shift in relative fluorescence intensity (RFI) of the cells relative to the untreated sample (PAR2 activation, intracellular calcium mobilization): HEK293 cells preincubated with Indo-1 AM, P6 100-200 μM, P8 200-400 μM, flow cytometry; for relative potential of PAR2 activation (rank order): HEK293 cells, calcium mobilization, FIG. 4 A-C. From the text:
To test whether the modified PAR ligands such as the synthesis intermediates as well as the final compound P8 are capable of binding and activating PAR in vitro a calcium-based cell activation assay was established on the basis of the assay for measurement of intracellular Ca^2+ mobilization described in Kelm et al., J. Exp. Med. 195 (2002), 1207-1213, which can be used directly on PAR, i.e. PAR2 expressing cells.
SOP: Measurement of Intracellular Ca^2+ Mobilization • Thaw 1 aliquot of frozen (from liquid N2) HEK293 cells (careful at RT) • Provide 10 mL of DMEM (Dulbecco's Modified Eagle Medium, phenol red free!) containing 10% FCS, antibiotics (50 μg/mL gentamicin final conc.) on a 10 cm cell culture plate • Add cells to the plate and grow them at 37° C., 8% CO2 until 60-70% confluency (one cell layer on the plate) • Wash the cells 3× with 10 mM PBS (phosphate buffer saline), pH 7.4 • Add 10 mL of fresh DMEM (phenol red free!) and carefully resuspend the cells • Count the cells employing a flow cytometer and dilute to 3×10^5 cells/mL in DMEM (phenol red free!) • Pipette 1 ml of the diluted cell suspension in each well of a 24-well cell culture plate • Add 30 μL of Pluronic® F-127 (0.01% (v/v) final conc., P2443 Sigma-Aldrich) and 15 μL of Indo 1-AM ester in DMSO (15 μM final conc., I3261 Sigma-Aldrich) to the cell suspension • Incubate for 45 min at 37° C., 8% CO2, in the dark • Henceforward keep the cells in the dark • Remove cells from the culture plate and subsequently wash 1× with 15 mL of HEPES buffer (100 mM HEPES, pH 7.4) to remove excess Indo 1-AM ester and resuspend cells in 1 mL HEPES buffer (100 mM HEPES, pH 7.4) • Add 10 μL propidium iodide (PI: final conc. 100 ng/mL, P4864 Sigma-Aldrich) to the cell suspension and immediately perform flow cytometry analysis • Perform flow cytometry analysis using the appropriate laser/filter sets (CyFlow® Cube 8 Sysmex):
Indo 1-AM: λexcitation,max 345 nm, λemission,max 400 nm (Ca^2+ bound), λemission,max 475 nm (Ca^2+ free), (excitation: UV-LED, emission: FL4 channel, 455/50 nm)
PI: λexcitation,max 535 nm (DNA-bound), λemission,max 617 nm (DNA-bound), (excitation: 488 nm laser, emission: FL2 channel, 590/50 nm) • For PAR-2 activation, add the appropriate amount of activator (SLIGRL: 50 μM final conc., trypsin: 40 Units (TRYPSEQM-RO Roche), P6 or P8: 100-200 μM or 200-400 μM respectively) to the cell suspension (containing 15 nmol Indo 1-AM ester) and immediately perform flow cytometry analysis • Determine the decrease in relative fluorescence intensity (due to the shift from unbound towards calcium bound Indo 1-AM complexes) after PAR mediated activation of HEK293 cells
As described above, activation of PARs leads to the initiation of a variety of signal transduction pathways and downstream signaling. One consequence of PAR activation presents the intracellular calcium mobilization from storage reservoirs of the endoplasmic reticulum (ER) and mitochondria into the cytosol. […] In the present assay the Indo-1 AM fluorophore was used, which is an esterified derivative of Indo-1 and thus able to penetrate the cell membrane. Upon uptake into the cytoplasm, present esterases will transfer the ester into the carboxylate, which is then trapped in the cell due to its obtained negative charges. A shift in Indo-1 AM emission from 480 nm (calcium free Indo-1 AM) to 400 nm (calcium bound Indo-1 AM) can be detected employing a flow cytometer, when bound to free calcium. […]
For orientation: Calcium assays in cells follow changes in intracellular calcium, usually with a dye or a luminescent sensor.

The values below come from US20200254110A1, “LIGAND-CONJUGATES AND METHODS FOR TARGETED RECEPTOR-MEDIATED CELLULAR UPTAKE” (priority 2017, published 2020).

Ends that are not written are not given here.

Take “P8 modified IONPs (SLIGRL; not fully specified (C-terminus); also: P8 modified IONPs (on iron oxide nanoparticles))”: the “uptake (internalization) into cultured keratinocytes” value in test [1] is reported as “successful uptake”.

For the substance 2-furoyl(1)L(2)IG(4)RL(6)-NH2, the “effectiveness relative to SLIGRL-NH2” value in test [2] is 10-20 fold.

Take Fam5/6-Lysine-DEG-SLIGRL [P8]: in test [3], the “shift in relative fluorescence intensity (RFI) of the cells relative to the untreated sample (PAR2 activation, intracellular calcium mobilization)” value is recorded as “induced a shift in relative fluorescence intensity”; the “relative potential of PAR2 activation (rank order)” value (“relative potential” below) is “decreased from SLIGRL-NH2, to P6 and further to P8”.

As for NH2-DEG-SLIGRL [P6], in test [3], the “shift in relative fluorescence intensity (RFI) of the cells relative to the untreated sample (PAR2 activation, intracellular calcium mobilization)” value is listed as “induced a shift in relative fluorescence intensity”; the “relative potential” value was “decreased from SLIGRL-NH2, to P6 and further to P8”.

With “SerLeuIleGlyArgLeu-NH2 (SLIGRL-NH2) [PAR2 agonist hexapeptide, native tethered ligand of rodent PAR2, reference compound]”, the “relative potential” value in test [3] is “decreased from SLIGRL-NH2, to P6 and further to P8”.
